Measurements published in patent US7235548B2, “Compounds and their use as positive AMPA receptor modulators” (NeuroSearch A/S, priority 1998, dated 2007).

Biological target: ionotropic quisqualate (AMPA) receptors
Test: In vitro inhibition of 3H-AMPA binding
Settings: 5 nM 3H-AMPA, rat cerebral cortex membranes, 30 min at 2° C.; read-out: IC50 (concentration of the test substance which inhibits the specific binding of 3H-AMPA by 50%)
Excerpt: L-glutamate (GLU) is the major excitatory neurotransmitter in the mammalian central nervous system. From electrophysiological- and binding studies, there appear to be at least three subtypes of GLU receptors, tentatively named N-methyl-D-aspartate (NMDA)-, quisqualate- and kainate receptors. GLU receptor subtypes sensitive to quisqualate and kainate as a group are often referred to as non-NMDA receptors. Receptor binding studies using the labelled agonists ^3H-AMPA (α-amino-3-hydroxy-5-methyl-4-isoxazolepropionic acid) (for quisqualate receptors) and ^3H-kainate (for kainate receptors) have shown different antagonist selectivities and regional distribution. AMPA has been known for several years to be a potent and selective agonist at the traditionally named quisqualate receptors. Activation of quisqualate receptors by AMPA is associated with Na^+ influx and K^+ efflux leading to depolarization.
The non-NMDA receptors have recently been reclassified to include the quisqualate activated metabotropic receptor type, linked to the inositol triphosphate and diacylglycerate metabolism. […] Selective activation of the metabotropic type has been claimed for trans-ACPD. Recently, the potent and competitive non-NMDA receptor antagonists CNQX and NBQX have been described, and CNQX have been reported not to block the effect of quisqualate at the metabotropic receptor subtype. ^3H-AMPA is a selective radioligand for labelling the ionotropic quisqualate (AMPA) receptors.
Preparations are performed at 0–4° C. unless otherwise indicated. Cerebral cortex from male Wistar rats (150–200 g) is homogenized for 5–10 sec in 20 ml Tris-HCl (30 mM, pH 7.4) using an Ultra-Turrax homogenizer. The suspension is centrifuged at 27,000×g for 15 min and the pellet is washed three times with buffer (centrifuged at 27,000×g for 10 min). The washed pellet is homogenized in 20 ml of buffer and incubated on a water bath (37° C.) for 30 min to remove endogenous glutamate and then centrifuged for 10 min at 27,000×g. The pellet is then homogenized in buffer and centrifuged at for 10 min at 27,000×g. The final pellet is resuspended in 30 ml buffer and the preparation is frozen and stored at −20° C.
The membrane preparation is thawed and centrifuged at 2° C. for 10 min at 27,000×g for 10 min. The pellet is washed twice with 20 ml 30 mM Tris-HCl containing 2.5 mM CaCl2, pH 7.4 using an Ultra-Turrax homogenizer and centrifuged for 10 min at 27,000×g. The final pellet is resuspended in 30 mM Tris-HCl containing 2.5 mM CaCl2 and 100 mM KSCN, pH 7.4 (100 ml per g of original tissue) and used for binding assays. Aliquots of 0.5 (0.2) ml are added to 25 (20) μl of test solution and 25(20) μl of ^3H-AMPA (5 nM, final concentration), mixed and incubated for 30 min at 2° C. Non-specific binding is determined using L-glutamate (0.6 mM, final concentration). After incubation the 550 μl samples are added 5 ml of ice-cold buffer and poured directly onto Whatman GF/C glass fibre filters under suction and immediately washed with 5 ml of ice-cold buffer. The 240 μl samples are filtered over glass fibre filter using a Skatron cell harvrester. The filters are washed with 3 ml ice-cold buffer. The amount of radioactivity on the filters is determined by conventional liquid scintillation counting. Specific binding is total binding minus non-specific binding.
The test value will be given as the IC50 (the concentration (μM) of the test substance which inhibits the specific binding of ^3H-AMPA by 50%)
In the case of `CC(=O)c1ccc2c(c1)S(=O)(=O)NC(C1CCCCC1)N2` (stereo not drawn) [Compound 13, 3-Cyclohexyl-7-acetyl-1,2,3,4-tetrahydro-1,2,4-benzothiadiazine-1,1-dioxide], the IC50 is reported as 22 µM.
`CC(=NO)c1ccc2c(c1)S(=O)(=O)NC(C1CCCCC1)N2` (stereo not drawn) [Compound 14, 3-Cyclohexyl-7-(1-hydroxyiminoethyl)-1,2,3,4-tetrahydro-1,2,4-benzothiadiazine-1,1-dioxide] gave an IC50 of 45 µM.
For `NC(=O)c1ccc2c(c1)S(=O)(=O)NC(C1CCCCC1)N2` (stereo not drawn) [Compound 15, 3-Cyclohexyl-7-carbamoyl-1,2,3,4-tetrahydro-1,2,4-benzothiadiazine-1,1-dioxide], the IC50 was 39 µM.
In the case of `NS(=O)(=O)c1ccc2c(c1)S(=O)(=O)NC(C1CCCCC1)N2` (stereo not drawn) [Compound 44, 3-Cyclohexyl-7-sulfamoyl-1,2,3,4-tetrahydro-1,2,4-benzothiadiazine-1,1-dioxide], the IC50 is reported as 3.5 µM.
Work on `CN(C)S(=O)(=O)c1ccc2c(c1)S(=O)(=O)NC(C1CCCCC1)N2` (stereo not drawn) [Compound 47, 3-Cyclohexyl-7-dimethylaminosulfonyl-1,2,3,4-tetrahydro-1,2,4-benzothiadiazine-1,1-dioxide] yielded an IC50 of 5.3 µM.

Tested on: not given
Test: not given
Settings: not given
Work on `CC1NC(=O)c2ccccc2O1` (stereo not drawn) [Compound 3, 2-Methyl-3,4-dihydro-1,3-benzoxazine-4-one] yielded a melting point of 124 to 126 °C.
`O=C1NC(c2ccccc2)Oc2ccccc21` (stereo not drawn) [Compound 4, 2-Phenyl-3,4-dihydro-1,3-benzoxazine-4-one] gave a melting point of 157 to 160 °C.
For `CCC1(C)NC(=O)c2ccccc2O1` (stereo not drawn) [Compound 8, 2-Ethyl-2-methyl-3,4-dihydro-1,3-benzoxazine-4-one], the melting point was 76 to 78 °C.
Compound `CC(=O)Nc1ccccc1-c1ccc2c(c1)S(=O)(=O)NC(C1CCCCC1)N2` (stereo not drawn) [Compound 19, 3-Cyclohexyl-7-(2′-acetamidophenyl)-1,2,3,4-tetrahydro-1,2,4-benzothiadiazine-1,1-dioxide] has a melting point of 245 to 249 °C.
Work on `COc1cc(C(F)(F)F)ccc1-c1ccc2c(c1)S(=O)(=O)NC(C1CCCCC1)N2` (stereo not drawn) [Compound 22, 3-Cyclohexyl-7-(2′-methoxy-4′-trifluoromethylphenyl)-1,2,3,4-tetrahydro-1,2,4-benzothiadiazine-1,1-dioxide] yielded a melting point of 255 to 257 °C.
`CN(C)S(=O)(=O)c1ccccc1-c1ccc2c(c1)S(=O)(=O)NC(C1CCCCC1)N2` (stereo not drawn) [Compound 24, 3-Cyclohexyl-7-(2′-(N,N-dimethylsulfamoyl)phenyl)-1,2,3,4-tetrahydro-1,2,4-benzothiadiazine-1,1-dioxide] showed a melting point of 290 to 300 °C.
In the case of `O=S1(=O)NC(C2CCCCC2)Nc2ccc(-c3cccc(O)c3)cc21` (stereo not drawn) [Compound 27, 3-Cyclohexyl-7-(3′-hydroxyphenyl)-1,2,3,4-tetrahydro-1,2,4-benzothiadiazine-1,1-dioxide], the melting point is reported as 238 to 246 °C.
`CS(=O)(=O)Nc1ccc2c(c1)S(=O)(=O)NC(C1CCCCC1)N2` (stereo not drawn) [Compound 39, 3-Cyclohexyl-7-methylsulfonylamino-1,2,3,4-tetrahydro-1,2,4-benzothiadiazine-1,1-dioxide] showed a melting point of 255 to 258 °C.
`O=[N+]([O-])c1ccc2c(c1)S(=O)(=O)NC(C1CCCCC1)N2` (stereo not drawn) [Compound 40, 3-Cyclohexyl-7-nitro-1,2,3,4-tetrahydro-1,2,4-benzothiadiazine-1,1-dioxide] gave a melting point of 209 to 211 °C.
Compound `O=S1(=O)NC(C2CCCC2)Nc2ccc(S(=O)(=O)N3CCCCC3)cc21` (stereo not drawn) [Compound 55, 3-Cyclopentyl-7-piperidinosulfonyl-1,2,3,4-tetrahydro-1,2,4-benzothiadiazine-1,1-dioxide] has a melting point of 258 to 260 °C.
In the case of `CN1C(C2CCCCC2)Nc2ccc(S(=O)(=O)N3CCOCC3)cc2S1(=O)=O` (stereo not drawn) [Compound 85, 3-Cyclohexyl-2-methyl-7-morpholinosulfonyl-1,2,3,4-tetrahydro-1,2,4-benzothiadiazine-1,1-dioxide], the melting point is reported as 243 to 245 °C.
`CN1c2ccc(S(=O)(=O)N3CCOCC3)cc2S(=O)(=O)NC1C1CCCCC1` (stereo not drawn) [Compound 86, 3-Cyclohexyl-4-methyl-7-morpholinosulfonyl-1,2,3,4-tetrahydro-1,2,4-benzothiadiazine-1,1-dioxide] gave a melting point of 207 to 210 °C.
With `NS(=O)(=O)c1cc(Br)c2c(c1)S(=O)(=O)NC(C1CCCCC1)N2` (stereo not drawn) [Compound 101, 5-Bromo-3-cyclohexyl-7-sulfamoyl-1,2,3,4-tetrahydro-1,2,4-benzothiadiazine-1,1-dioxide] the melting point was 254 to 258 °C.
In the case of `O=S1(=O)NC(C2CCCCC2)Nc2cc3c(cc21)OCCO3` (stereo not drawn) [Compound 118, 3-cyclohexyl-6,7-ethylenedioxy-1,2,3,4-tetrahydro-1,2,4-benzothiadiazine-1,1-dioxide], the melting point is reported as 196 to 200 °C.
Compound `O=S1(=O)NC(C2CCCCC2)Nc2ccc3c(c21)OCCO3` (stereo not drawn) [Compound 122, 3-Cyclohexyl-7,8-ethylenedioxy-1,2,3,4-tetrahydro-1,2,4-benzothiadiazine-1,1-dioxide] has a melting point of 268 to 270 °C.

Tested on: AMPA receptors
Test: AMPA evoked single neuron spike activity in rat hippocampus (iontophoretic application of AMPA), in vivo
Settings: 10 mg kg^−1 i.v., rat hippocampus
Excerpt: Evaluation of the in vivo effects of positive AMPA modulators (PAMs) on the AMPA evoked spike activity in rat hippocampus. Hippocampal single neuron spike activity is strongly influenced by excitatory input, and iontophoretic application of AMPA induces spike activity in vivo in a dose-dependent manner ([…] et al. 1998). […] PAMs potentate AMPA receptor activation in vitro, and if this mechanism also operates in vivo, the i.v. injection of an PAM should enhance AMPA evoked spike activity. Thus, the aim of this study was to test the in vivo effect of a group of in vitro active PAMs. This have been done by studying their ability to enhances AMPA evoked spike activity after i.v. administration. Experiments were performed on male Wistar rats (M & B, Denmark) weighing 280-380 g, housed in two per cage with free access to food and water. […] Additional anaesthetic was given i.v. if the rat responded to a pinch of the back foot. The trachea was cannulated and the rats were placed in a stereotaxic frame and ventilated by a rodent ventilator (Ugo Basile, Comerio-Varese, Italy). Core body temperature was maintained at 37.5° C. by a DC heating pad. The left and dorsal part of the parietal bone was removed by craniotomy and the dura was withdrawn exposing the pia mater and underlying brain, covered with 0.9% NaCl. AMPA (Sigma, USA) was dissolved at 10 mM in 0.2 M NaCl. NMDA (Sigma, USA) was dissolved at 100 mM in 100 mM NaCl. Both solutions were adjusted to pH 7.5-8.0 with NaOH. COMPOUND 61 was dissolved in 200 mM CH3SO3^- Na^+ at a contration of 10 mM for iontophoretic application ([…]) and in isotonic glucose (278 mM) for i.v. administration. Cyclothiazide, COMPOUND 63, COMPOUND 56, COMPOUND 115 and COMPOUND 114 were all dissolved at in 5% chremophore solution at a concentration of 5 mg ml^-1. Evoked neuronal spike activity was analyzed on-line by a computer, saving single spikes and time of event. Neuronal spike activity (number of action potentials s^-1) was monitored on a pulse rate histogram together with indicators for AMPA, COMPOUND 61 and vehicle application. Extracellular recordings of single hippocampal neuron spikes were made with five-barrel glass microelectrodes (5B120F-6, World Precision Instruments Inc., Sarasota, Fla., USA) with a tip diameter of 10-12 μm. The individual barrels were filled with 5 M NaCl (recording), 400 mM NaCl (current balancing), 10 mM COMPOUND 61 in 200 mM CH3SO3^- Na^+ (pH 4.7), 200 mM CH3SO3^- Na^+ (pH 4.7, Vehicle), and the last barrel was filled with the AMPA. Experiments were performed on hippocampal neurons (A=5.5-6.5 mm, L=1.5-2.0 mm, H=2.0-3.0 mm, according to Paxinos & Watson, 1986). Neuronal spike activity was evoked by iontophoretic application of AMPA for periods of 10 to 15 s with 1.5 min intervals. Single neuron spike activity was amplified 5000 times with a bandwidth of 0.3 and 3 kHz (CyberAmp 320 with a Al 402 x50 smartprobe, Axon Instruments, California, USA). On-line and off-line analyses were performed by the Spike2 program with a 1401 plus interface (Cambridge Electronic Design Limited, England). The computer program also recorded mean arterial blood pressure and monitored and controlled iontophoretic application. AMPA was ejected into hippocampus in regular cycles of 100-105 s. […] Recording of neuronal spike activity was continued for at least 45 min after intravenous injection. The PAM reactivity was tested by microiontophoretic application of COMPOUND 61 (20 nA, FIG.).
In the case of `NS(=O)(=O)c1cc2c(cc1Cl)NC(C1CC3C=CC1C3)NS2(=O)=O` (stereo not drawn) [cyclothiazide, reference compound], the “AMPA evoked spike activity” value is reported as “did not enhance”.
